# From ChEMBL document CHEMBL1129544, “A structure-activity relationship study of novel phenylacetamides which are sodium channel blockers” (J Med Chem, 1996)
# Biological target: Sodium channel protein type 2 subunit alpha (Rattus norvegicus, UniProt P04775)
# Experiment: Inhibitory activity against type IIA sodium channel in CNaIIA-1 cell line expressed in CHO cells
# Format: cell-based
# Sodium channel protein type 2 subunit alpha, sequence (P04775 whole entry): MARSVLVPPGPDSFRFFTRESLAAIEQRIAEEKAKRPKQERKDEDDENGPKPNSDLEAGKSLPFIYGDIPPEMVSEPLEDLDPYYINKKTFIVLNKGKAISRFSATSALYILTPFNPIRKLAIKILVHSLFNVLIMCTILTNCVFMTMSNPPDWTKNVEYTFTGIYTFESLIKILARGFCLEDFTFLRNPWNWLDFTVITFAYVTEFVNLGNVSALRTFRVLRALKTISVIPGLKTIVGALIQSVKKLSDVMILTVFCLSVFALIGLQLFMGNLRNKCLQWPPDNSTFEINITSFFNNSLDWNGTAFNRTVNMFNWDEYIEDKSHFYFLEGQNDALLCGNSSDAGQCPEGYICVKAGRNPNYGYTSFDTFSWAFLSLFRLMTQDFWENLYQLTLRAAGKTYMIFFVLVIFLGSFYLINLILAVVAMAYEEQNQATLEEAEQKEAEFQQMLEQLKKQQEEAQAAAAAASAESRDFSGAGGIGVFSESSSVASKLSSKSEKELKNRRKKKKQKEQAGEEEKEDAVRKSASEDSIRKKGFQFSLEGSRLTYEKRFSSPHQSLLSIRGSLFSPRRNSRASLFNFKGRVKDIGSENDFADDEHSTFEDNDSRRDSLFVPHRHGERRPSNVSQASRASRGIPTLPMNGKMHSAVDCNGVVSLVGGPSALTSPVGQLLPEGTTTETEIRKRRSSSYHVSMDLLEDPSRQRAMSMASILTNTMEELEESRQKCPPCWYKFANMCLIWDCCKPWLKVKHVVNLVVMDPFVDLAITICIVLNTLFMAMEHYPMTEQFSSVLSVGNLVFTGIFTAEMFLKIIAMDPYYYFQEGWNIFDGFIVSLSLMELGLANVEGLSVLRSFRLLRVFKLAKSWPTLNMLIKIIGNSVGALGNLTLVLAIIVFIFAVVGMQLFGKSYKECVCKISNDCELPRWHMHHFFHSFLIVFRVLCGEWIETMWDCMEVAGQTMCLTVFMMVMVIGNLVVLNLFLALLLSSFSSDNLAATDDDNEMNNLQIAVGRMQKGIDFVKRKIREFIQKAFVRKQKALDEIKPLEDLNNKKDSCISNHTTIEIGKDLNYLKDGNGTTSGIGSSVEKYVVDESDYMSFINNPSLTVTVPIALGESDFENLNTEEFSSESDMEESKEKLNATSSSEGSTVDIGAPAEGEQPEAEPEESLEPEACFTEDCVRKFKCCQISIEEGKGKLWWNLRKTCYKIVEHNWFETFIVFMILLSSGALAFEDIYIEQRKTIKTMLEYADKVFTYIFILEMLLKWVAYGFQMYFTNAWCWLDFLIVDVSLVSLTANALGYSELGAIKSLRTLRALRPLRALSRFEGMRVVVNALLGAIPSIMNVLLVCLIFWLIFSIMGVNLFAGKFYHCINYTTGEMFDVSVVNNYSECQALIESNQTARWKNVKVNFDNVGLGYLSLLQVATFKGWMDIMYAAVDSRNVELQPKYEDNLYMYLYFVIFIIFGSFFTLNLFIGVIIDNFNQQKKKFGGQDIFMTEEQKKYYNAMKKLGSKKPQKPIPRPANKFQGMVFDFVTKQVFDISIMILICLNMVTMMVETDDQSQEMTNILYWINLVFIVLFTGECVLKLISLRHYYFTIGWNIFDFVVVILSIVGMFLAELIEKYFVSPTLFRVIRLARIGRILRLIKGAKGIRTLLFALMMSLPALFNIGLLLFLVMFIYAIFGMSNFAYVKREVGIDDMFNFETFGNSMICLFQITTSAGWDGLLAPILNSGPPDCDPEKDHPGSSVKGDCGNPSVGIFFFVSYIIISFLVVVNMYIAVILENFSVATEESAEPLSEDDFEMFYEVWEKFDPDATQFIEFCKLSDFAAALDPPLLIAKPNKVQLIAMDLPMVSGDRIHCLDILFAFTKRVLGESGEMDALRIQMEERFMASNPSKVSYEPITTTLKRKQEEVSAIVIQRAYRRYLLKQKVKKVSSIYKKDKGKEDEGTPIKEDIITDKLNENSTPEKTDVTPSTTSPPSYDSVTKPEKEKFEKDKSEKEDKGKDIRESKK
row,Compound,IC50
1,CN(C)CCCN(C)C(=O)C(c1ccccc1)c1ccccc1,> 200 µM
2,O=C(NCCCN1CCOCC1)C(c1ccccc1)c1ccccc1,6.5 µM
3,O=C(NCCCN1CCC(Cc2ccccc2)CC1)C(c1ccccc1)c1ccccc1,0.6 µM
4,CN1CCN(CCCNC(=O)C(c2ccccc2)c2ccccc2)CC1,> 200 µM
5,O=C(NCCCN1CCCCC1)C(c1ccccc1)c1ccccc1,5.3 µM
6,NCCCNC(=O)C(c1ccccc1)c1ccccc1,40 µM
7,O=C(NCCCN1CCC(n2c(=O)[nH]c3ccccc32)CC1)C(c1ccccc1)c1ccccc1,0.72 µM
8,O=C(NCCCN1CCN(Cc2ccccc2)CC1)C(c1ccccc1)c1ccccc1,0.7 µM
9,CC(CNC(=O)C(c1ccccc1)c1ccccc1)CN1CCC(c2ccccc2)CC1 (stereo not drawn),1.5 µM
10,O=C(NCCCN1CCC(c2ccccc2)CC1)C(c1ccccc1)c1ccccc1,1.1 µM
11,CN(CCCNC(=O)C(c1ccccc1)c1ccccc1)Cc1ccccc1,1.2 µM
12,CN(C)CCCNC(=O)C(c1ccccc1)c1ccccc1,20 µM
13,CC1CCC(C)N1CCCNC(=O)C(c1ccccc1)c1ccccc1 (stereo not drawn),4.6 µM
14,COc1ccccc1N1CCN(CCCNC(=O)C(c2ccccc2)c2ccccc2)CC1,1.2 µM
15,O=C(NCCCN1CCC(O)(c2ccccc2)CC1)C(c1ccccc1)c1ccccc1,2.2 µM
16,O=C(NCCCN1CCC(Oc2ccccc2)CC1)C(c1ccccc1)c1ccccc1,1.4 µM
17,O=C(NCCCCN1CCCCC1)C(c1ccccc1)c1ccccc1,10 µM
18,O=C(NCCN1CCCCC1)C(c1ccccc1)c1ccccc1,7.2 µM
19,CN1CCCC1CCNC(=O)C(c1ccccc1)c1ccccc1 (stereo not drawn),32 µM
20,CC1CN(CCCNC(=O)C(c2ccccc2)c2ccccc2)CC(C)O1 (stereo not drawn),2.7 µM
21,CCN(CC)CCCNC(=O)C(c1ccccc1)c1ccccc1,4.4 µM
22,O=C(NC1CN2CCC1CC2)C(c1ccccc1)c1ccccc1 (stereo not drawn),95 µM
23,O=c1[nH]c2ccccc2n1C1CCN(CCCC(c2ccc(F)cc2)c2ccc(F)cc2)CC1 [PIMOZIDE],0.34 µM
